{"source": "patent US6420379B1", "about": "“Alkynyl-substituted camptothecins and process for their preparation” (Pharmacia & Upjohn S.p.A., priority 1997, dated 2002)", "origin": "cited, not measured here", "key": {"human albumin": {"molecular_target": "human albumin (Homo sapiens, UniProt P02768)", "sequence (P02768 25-609)": "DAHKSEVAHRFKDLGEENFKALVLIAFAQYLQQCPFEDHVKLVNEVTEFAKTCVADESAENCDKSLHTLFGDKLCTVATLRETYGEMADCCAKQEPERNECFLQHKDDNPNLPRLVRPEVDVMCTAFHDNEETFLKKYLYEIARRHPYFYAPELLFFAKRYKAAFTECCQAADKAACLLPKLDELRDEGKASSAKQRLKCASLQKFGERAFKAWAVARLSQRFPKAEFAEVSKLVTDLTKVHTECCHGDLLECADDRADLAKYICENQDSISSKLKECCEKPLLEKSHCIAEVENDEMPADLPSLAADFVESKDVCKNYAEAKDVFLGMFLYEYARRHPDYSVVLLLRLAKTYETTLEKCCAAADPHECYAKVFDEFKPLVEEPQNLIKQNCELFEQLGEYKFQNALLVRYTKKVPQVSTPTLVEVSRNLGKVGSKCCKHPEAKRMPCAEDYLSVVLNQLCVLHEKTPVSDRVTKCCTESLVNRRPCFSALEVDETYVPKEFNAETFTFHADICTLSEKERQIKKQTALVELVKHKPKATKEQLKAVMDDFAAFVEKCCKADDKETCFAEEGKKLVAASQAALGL", "settings": "presence of biologically relevant levels of human albumin"}, "[1]": {"settings": "2 hours after drug addition to human plasma"}}}
{"smiles": "CC[C@@]1(O)C(=O)OCc2c1cc1n(c2=O)Cc2cc3ccccc3nc2-1", "note": "[camptothecin]", "values": [{"measurement": "half-life of the biologically active form", "setting": "human albumin", "value": "about 12 min."}, {"measurement": "percentage of the drug converted to camptothecin carboxylate", "setting": "[1]", "value": "greater than 99%"}]}
